Experimental data taken from patent EP0338435A1, “3,4-Dihydroxypyrrolidin-2-one derivatives, process for their preparation, agents containing them and their use as well as the intermediates resulting from the preparation” (HOECHST AKTIENGESELLSCHAFT, priority 1988, dated 1989).
Read-outs that look alike come from different tables or passages of the source.

Assays:
ECS-Amnesie = experiment: inhibitory (passive) avoidance test (step-through test), reversal of ECS-induced amnesia; assay type: in vivo, Mäusen; conditions: po
From the text: (§1) Die Verbindungen der Formel I besitzen wertvolle pharmakologische Eigenschaften, insbesondere nootrope. Die nootrope Wirkung der erfindungsgemäßen Verbindungen wurde an Mäusen, die ein Körpergewicht von 20-25 g besaßen, im inhibitory (passive) avoidance test (step-through-test) geprüft. Eine modifizierte Form der von J. Kopp. Z. Bodanecky und M.E. Jarvik beschriebenen Test-Methode wurde von J. Bures, 0. Buresova und J. Huston im "Techniques and Basic Experiments for the Study of Brain and Benavior", Elsevier Scientific Publishers, Amsterdam 1983, beschrieben.
(§2) Entsprechend diesen Literaturangaben wird eine Substanz dann als nootrop wirksam bezeichnet, wenn sie bei den Versuchstieren die mittels eines electroconvulsiven Schocks erzeugte Amnesie (ECS-Amnesie) bzw. mittels Scopolamin-Injektion erzeugte Amnesie aufzuheben vermag.
(§3) Die Versuche wurden nach modifizierten Test-Methoden mit den erfindungsgemäßen Verbindungen durchgeführt. Als Vergleichsverbindung diente das bekannte Nootropikum 2-0xo-1-pyrrolidinylessigsäurea- mid (Piracetam). Die deutliche Überlegenheit der erfindungsgemäßen Verbindungen über die Vergleichssubstanz zeigte sich darin, daß der amnestische Effekt bereits mit einer MED (minimal effective dose) von 1-10 mg/kg p.o. aufzuheben ist. Die Vergleichssubstanz hat eine MED von ca. 500-1000 mg/kg p.o.

Scopolamin-Amnesie = experiment: inhibitory (passive) avoidance test (step-through test), reversal of scopolamine-induced amnesia; assay type: in vivo, Mäusen; conditions: Mus musculus, po, read-out: Inhibitory avoidance MED mg/kg p.o. Scopolamin-Amnesie
From the text: as §1, §2, §3

[1] = Mus musculus, read-out: Inhibitory avoidance MED mg/kg p.o. ECS-Amnesie
[2] = Mus musculus, mice 20-25 g, amnesia induced by electroconvulsive shock, read-out: Inhibitory avoidance MED mg/kg p.o. ECS-Amnesie
[3] = mice 20-25 g, amnesia induced by scopolamine injection

Compound	minimal effective dose (ECS-Amnesie; [1]) [mg/kg]	minimal effective dose (ECS-Amnesie; [2]) [mg/kg]	minimal effective dose (Scopolamin-Amnesie; [3]) [mg/kg]	further results
NC(=O)CN1CCCC1=O [Piracetam, 2-0xo-1-pyrrolidinylessigsäurea-mid, reference compound]	1000			minimal effective dose (ECS-Amnesie; read-out: MED (minimal effective dose)): 500 to 1000 mg/kg; minimal effective dose (Scopolamin-Amnesie): 500 mg/kg
Cc1ccc(CN2C[C@@H](O)[C@@H](O)C2=O)cc1 [Beispiel 33]		3		
COc1cccc(CN2C[C@@H](O)[C@@H](O)C2=O)c1 [Beispiel 34]		3	1	
Nc1ccc(CN2C[C@@H](O)[C@@H](O)C2=O)cc1 [Beispiel 36, 1-(4-Aminobenzyl)-(3R,4R)-3,4-dihydroxypyrrolidin-2-on]		3		
CC(C)N(CCNC(=O)CN1C[C@@H](O)[C@@H](O)C1=O)C(C)C [Beispiel 28, N-[2-(Diisopropylamino)ethyl]-2-[(3R,4R)-3,4-dihydroxypyrrolidin-2-on-1-yl]acetamid]	10			
O=C1[C@H](O)[C@H](O)CN1Cc1ccccc1 [Beispiel 29, 1-Benzyl-(3R,4R)-3.4-dihydroxy-pyrrolidin2-on]		3	1	
